Source: publication PMC8624133, “10th Trends in Medical Mycology Held on 8 to 11 October 2021, Aberdeen, Scotland, Organized by the European Confederation of Medical Mycology (ECMM)” (Journal of Fungi, 2021)
In brackets after ≈: the same amount, converted by molar mass. Where two headings read alike, the source gives them in different places.

How the values were obtained:
C. albicans [1] = format: cell-based, Candida albicans
[2] = tested on: C. auris clinical strains; test: organism not typed; format: cell-based, Candida auris
C. albicans [3] = test: Candidemia Netherlands, MIC distributions against EUCAST ECOFF; format: cell-based, Candida albicans
C. parapsilosis [4] = test: Vitek and EUCAST microdilution susceptibility; format: cell-based, Candida parapsilosis; settings: Lodderomyces parapsilosis
[5] = tested on: Phaeoacremonium parasiticum; test: Antifungal susceptibility testing; format: cell-based
Method: Results: Cultures for bacteria were sterile. Culture on Sabouraud was positive after 5 days of incubation, showing slow growing and initially white colonies. […] Its identification was performed by sequencing the internal transcribed spacer (ITS) region of ribosomal DNA, being the isolate identified as Phaeoacremonium parasiticum (100% homology).

[6] = tested on: Exophiala phaeomuriformis; test: MIC, CLSI M27-A3; format: cell-based; settings: read-out: MIC values
In short: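 Isolate recovered from aviation kerosene by 0.22 μm membrane filtration, grown on potato dextrose agar at 30 °C for seven days and identified by ITS sequencing. Susceptibility to clinical antifungals tested per CLSI M27-A3.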

C. fermentati = test: EUCAST E. Def 7.3.2 microdilution; format: cell-based, Candida fermentati; settings: n = 2
[7] = tested on: nine strains of Candida spp.; test: CLSI M27-A3 broth microdilution; format: cell-based; settings: nine strains; for MIC: Candida, read-out: GM MIC
C. tropicalis = format: cell-based, Candida tropicalis
Candida isolates = format: cell-based, Candida spp.
C. glabrata = format: cell-based, Candida glabrata
C. krusei = format: cell-based, Candida krusei
C. guilliermondii = test: EUCAST E. Def 7.3.2 microdilution; format: cell-based, Candida guilliermondii; settings: for MIC50 / MIC90 / GM / MIC Range: n = 62
[8] = tested on: A. fumigatus clinical isolates; test: Susceptibility of clinical isolates from CF patients; settings: all 10 clinical isolates
McLDM strains = test: EUCAST MIC, S. cerevisiae overexpressing M. circinelloides LDM, resistance phenotypes; format: cell-based, Saccharomyces cerevisiae
[9] = tested on: biofilm of filamentous fungi; test: Biofilm XTT-menadione assay; format: cell-based
Method: Materials & Methods: Eight strains are studied: Fusarium solani, Fusarium dimerum, Lomentospora prolificans, Scedosporium apiospermum, Aspergillus flavus, Aspergillus fumigatus and two azole resistant A. fumigatus.
Biofilms were formed after a 90-min adhesion phase followed by the addition of RPMI medium and after a 48 h at 37 °C. Antifungals at different concentrations were added, either after the adhesion phase or after the 48 h of incubation to study their effect on the formation and on the preformed biofilm. After washing, a mixture of XTT-menadione was added to the wells. After 60 min at 37 °C, the OD (optical density) is measured at 450 and 630 nm. An optical microscope observation allows the visualization of elements of the biofilm.

F. verticillioides = test: Etest susceptibility; format: cell-based, Fusarium verticillioides
[10] = tested on: Aspergillus spp. isolates; test: Gradient strip susceptibility (Liofilchem); format: cell-based
C. parapsilosis [11] = format: cell-based, Candida parapsilosis
C. auris = test: CLSI M27-A3 broth microdilution; format: cell-based, Candida auris; settings: for MIC: Candidozyma auris, read-out: GM MIC
Other species of Candida = format: cell-based, Candida spp.
Trichosporon isolates = test: CLSI broth microdilution; format: cell-based, Trichosporon spp.
Candida lipolytica = test: CLSI M44 agar diffusion; format: cell-based; settings: […]; discs 25 μg fluconazole, 1 μg voriconazole
[12] = tested on: C. auris Isolate B and Isolate C; test: microbe, parasite or virus in culture; format: cell-based, Candida auris
McLDM-F5 = test: microbe, parasite or virus in culture; format: cell-based, Saccharomyces cerevisiae AD2Δgal; settings: Saccharomyces cerevisiae, read-out: mean MIC
McLDM-F1-CPR = test: microbe, parasite or virus in culture; format: cell-based, Saccharomyces cerevisiae AD2Δgal; settings: Saccharomyces cerevisiae, read-out: mean MIC
[13] = tested on: Parathyridaria percutanea; test: In vitro antifungal susceptibility; format: cell-based

| Structure (SMILES) | I (intermediate) isolates, n (%) (C. albicans [1]) | S (sensitive) isolates, n (%) (C. albicans [1]) | isolates within the wildtype distribution range (C. albicans [3]) | MIC (C. parapsilosis [4]) | GM (C. fermentati) | MIC Range (C. fermentati) | MIC [7] | MIC Range [7] | I (intermediate) isolates, n (%) (C. tropicalis) | S (sensitive) isolates, n (%) (C. tropicalis) | I (intermediate) isolates, n (%) (C. glabrata) | S (sensitive) isolates, n (%) (C. glabrata) | MIC50 (C. guilliermondii; Meyerozyma guilliermondii) | MIC90 (C. guilliermondii; Meyerozyma guilliermondii) | GM (C. guilliermondii) | MIC Range (C. guilliermondii) | minimum inhibitory concentration (MIC), in words (F. verticillioides) | I (intermediate) isolates, n (%) (C. parapsilosis [11]) | S (sensitive) isolates, n (%) (C. parapsilosis [11]) | MIC Range (C. auris) | further results |
| --- | --- | --- | --- | --- | --- | --- | --- | --- | --- | --- | --- | --- | --- | --- | --- | --- | --- | --- | --- | --- | --- |
| C[C@@H]1[C@H](O)[C@@H](C)/C=C/C=C/C=C/C=C/C=C/C=C/C=C/[C@H](O[C@@H]2O[C@H](C)[C@@H](O)[C@H](N)[C@@H]2O)C[C@@H]2O[C@](O)(C[C@@H](O)C[C@@H](O)[C@H](O)CC[C@@H](O)C[C@@H](O)CC(=O)O[C@H]1C)C[C@H](O)[C@H]2C(=O)O [amphotericin B] | 4 (2%) | 196 (97%) | 100% | 0.5 µg/mL (≈ 0.541 µM) | 0.125 µg/mL | 0.125 to 0.25 µg/mL | 0.13 µg/mL (≈ 0.141 µM) | 0.03 to 2 µg/mL | 0 (0%) | 57 (100%) | 2 (2.8%) | 69 (97.2%) | 0.25 µg/mL (≈ 0.271 µM) | 0.25 µg/mL (≈ 0.271 µM) | 0.177 µg/mL | 0.06 to 0.5 µg/mL | lower values | 1 (0.6) | 169 (98.3%) | 0.125 to 2 µg/mL | MIC ([2]; range, 78 strains from patients with COVID-19): 0.12 to 2 µg/mL (≈ 0.13 to 2.16 µM); minimal inhibitory concentrations (MIC), in words [5]: higher; MIC [6]: 2 µg/mL (≈ 2.16 µM); susceptibility (Candida isolates): susceptible; S (sensitive) isolates, n (%) (C. krusei): 7 (100%); susceptibility [8]: susceptible; MICs compared to AD2Δ (McLDM strains): not affected; number of strains with 100% inhibition of biofilm formation [9]: two; isolates with in vitro high MIC values ([10]; first isolate per species and patient): 19.6%; MIC ([10]; gradient strips, ten isolates (5 A. terreus, 3 A. flavus, 1 A. fumigatus, 1 A. nidulans)): > 32 µg/mL; MIC (C. auris): 0.43 µg/mL (≈ 0.465 µM); I (intermediate) isolates, n (%) (Other species of Candida): 0 (0%); S (sensitive) isolates, n (%) (Other species of Candida): 26 (100%); MIC (Trichosporon isolates; read-out: GM MIC): 0.9 µg/mL (≈ 0.974 µM) |
| OC(Cn1cncn1)(Cn1cncn1)c1ccc(F)cc1F [fluconazole] | 0 (0%) | 199 (98.5%) | 96.8% | 8 µg/mL (≈ 26.1 µM) | 2 µg/mL | 2 µg/mL (≈ 6.53 µM) | 4.66 µg/mL (≈ 15.2 µM) | 0.5 to 32 µg/mL | 0 (0%) | 57 (100%) | 3 (4.2%) | 56 (78.9%) | 8 µg/mL (≈ 26.1 µM) | 16 µg/mL (≈ 52.2 µM) | 7.655 µg/mL | 0.125 to 64 µg/mL | high values | 0 (0%) | 171 (98.8%) | 1 to 32 µg/mL | R (resistant) isolates, n (%) (C. albicans [1]): 3 (1.5%); Resistance ([2]; CDC tentative breakpoints): 100%; resistant isolates (Candida lipolytica): 67%; decrease in MIC [12]: 4 fold; MIC ([12]; Candidozyma auris, Isolate B (ERG11 Y132F, TAC1B A583S)): 128 µg/mL (≈ 418 µM); reduction in MIC ([12]; Isolate C with ERG11 WT in place of K143R): 8 fold; MIC (McLDM-F5): 42.7 µg/mL (≈ 139 µM); R (resistant) isolates, n (%) (C. tropicalis): 0 (0%); resistant isolates (Candida isolates): 6.4%; R (resistant) isolates, n (%) (C. glabrata): 12 (16.9%); MIC of non wild-type isolates (C. guilliermondii): 64 µg/mL; MIC (C. guilliermondii; Meyerozyma guilliermondii, read-out: MIC of non wild-type isolates): 32 µg/mL; MIC (McLDM-F1-CPR): 14.7 µg/mL (≈ 47.9 µM); R (resistant) isolates, n (%) (C. parapsilosis [11]): 2 (1.2%); MIC (C. auris): 5.26 µg/mL (≈ 17.2 µM); I (intermediate) isolates, n (%) (Other species of Candida): 0 (0%); R (resistant) isolates, n (%) (Other species of Candida): 0 (0%); S (sensitive) isolates, n (%) (Other species of Candida): 25 (100%); in vitro susceptibility category [13]: resistance; MIC (Trichosporon isolates; read-out: high MICs): 8 µg/mL (≈ 26.1 µM) |
